Columns and labels:
Assay type in all cases: cell-based
cM5 receptor = experiment: Blockade of agonist-mediated calcium release via FLIPR (Assay C); details: CHO cells stably expressing cM5
Procedure: (§1) In this functional assay, the functional potency of a test compound as an antagonist of hM1, hM3 and […] receptors was determined by measuring the ability of the test compound to inhibit agonist-mediated increases in intracellular calcium.
(§2) CHO cells stably expressing the receptors were seeded into 96-well FLIPR plates the night before the assay was done. Seeded cells were washed twice with FLIPR buffer (10 mM HEPES, pH 7.4, 2 mM calcium chloride, 2.5 mM probenecid in Hank's Buffered Salt Solution (HBSS) without calcium and magnesium) using Cellwash (MTX Labsystems, Inc.) to remove growth media. After washing, each well contained 50 μL of FLIPR buffer. The cells were then incubated with 50 μL/well of 4 μM FLUO-4AM (a 2× solution was made) for 40 minutes at 37° C., 5% carbon dioxide. Following the dye incubation period, cells were washed two times with FLIPR buffer, leaving a final volume of 50 μL in each well.
(§3) The dose-dependent stimulation of intracellular Ca^2+ release for oxotremorine was determined so that the test compound could be measured against oxotremorine stimulation at an EC90 concentration. Cells were first incubated with compound dilution buffer for 20 minutes and then oxotremorine was added. […]
(§4) The parameters used for the FLIPR were: exposure length of 0.4 seconds, laser strength of 0.5 watts, excitation wavelength of 488 nm, and emission wavelength of 550 nm. Baseline was determined by measuring the change in fluorescence for 10 seconds prior to addition of oxotremorine. Following oxotremorine stimulation, the FLIPR continuously measured the change of fluorescence every 0.5 to 1 second for 1.5 minutes to capture the maximum fluorescence change.
(§5) The change of fluorescence was expressed as maximum fluorescence minus baseline fluorescence for each well. The raw data was analyzed against the logarithm of test compound concentration by nonlinear regression with GraphPad Prism (GraphPad Software, Inc., San Diego, Calif.) using the built-in model for sigmoidal dose-response. […]

hM1 receptor = molecular target: T1, hM1 receptor (Homo sapiens, UniProt P11229); experiment: as above; details: CHO cells stably expressing hM1
T1 construct: expressed in transfected cells; host or cells: CHO
T1 sequence (P11229 1-460): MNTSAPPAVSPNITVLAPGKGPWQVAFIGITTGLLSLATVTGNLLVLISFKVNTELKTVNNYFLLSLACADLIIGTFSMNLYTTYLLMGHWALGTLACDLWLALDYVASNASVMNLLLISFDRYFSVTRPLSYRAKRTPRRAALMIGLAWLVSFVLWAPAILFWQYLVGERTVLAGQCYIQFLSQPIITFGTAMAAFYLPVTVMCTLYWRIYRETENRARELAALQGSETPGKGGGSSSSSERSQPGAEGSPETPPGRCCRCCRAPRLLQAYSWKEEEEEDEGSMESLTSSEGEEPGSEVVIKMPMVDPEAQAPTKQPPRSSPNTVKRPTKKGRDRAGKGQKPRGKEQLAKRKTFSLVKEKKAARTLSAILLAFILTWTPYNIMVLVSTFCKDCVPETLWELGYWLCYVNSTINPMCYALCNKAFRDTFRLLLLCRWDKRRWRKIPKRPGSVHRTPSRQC
Procedure: as §1, §2, §3, §4, §5

hM3 receptor = molecular target: T2, hM3 receptor (Homo sapiens, UniProt P20309); experiment: as above; details: CHO cells stably expressing hM3
T2 construct: expressed in transfected cells; host or cells: CHO
T2 sequence (P20309 whole entry): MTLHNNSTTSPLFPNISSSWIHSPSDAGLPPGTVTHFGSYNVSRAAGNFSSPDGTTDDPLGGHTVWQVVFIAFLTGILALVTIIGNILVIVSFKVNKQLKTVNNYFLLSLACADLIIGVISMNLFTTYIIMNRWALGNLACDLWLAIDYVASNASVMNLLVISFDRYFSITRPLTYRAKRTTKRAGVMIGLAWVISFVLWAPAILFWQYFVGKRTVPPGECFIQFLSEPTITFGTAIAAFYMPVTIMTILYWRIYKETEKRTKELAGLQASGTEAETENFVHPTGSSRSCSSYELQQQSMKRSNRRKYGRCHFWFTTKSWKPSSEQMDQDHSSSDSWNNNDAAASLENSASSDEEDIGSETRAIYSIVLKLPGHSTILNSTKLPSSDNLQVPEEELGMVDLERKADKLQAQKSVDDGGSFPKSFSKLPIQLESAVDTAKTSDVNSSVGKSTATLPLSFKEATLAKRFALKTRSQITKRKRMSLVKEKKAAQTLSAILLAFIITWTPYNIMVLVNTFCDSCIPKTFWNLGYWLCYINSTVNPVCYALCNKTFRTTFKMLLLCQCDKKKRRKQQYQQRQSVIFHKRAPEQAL
Procedure: as §1, §2, §3, §4, §5

[1] = molecular target: T3, human β2 adrenergic receptor (endogenous, BEAS-2B cells) (Homo sapiens, UniProt P07550); experiment: Whole-cell cAMP Flashplate assay with lung epithelial cell line (BEAS-2B)
T3 construct: using a cell line expressing endogenous levels of the β2 adrenergic receptor; host or cells: BEAS-2B human lung epithelial cell line
T3 sequence (P07550 whole entry): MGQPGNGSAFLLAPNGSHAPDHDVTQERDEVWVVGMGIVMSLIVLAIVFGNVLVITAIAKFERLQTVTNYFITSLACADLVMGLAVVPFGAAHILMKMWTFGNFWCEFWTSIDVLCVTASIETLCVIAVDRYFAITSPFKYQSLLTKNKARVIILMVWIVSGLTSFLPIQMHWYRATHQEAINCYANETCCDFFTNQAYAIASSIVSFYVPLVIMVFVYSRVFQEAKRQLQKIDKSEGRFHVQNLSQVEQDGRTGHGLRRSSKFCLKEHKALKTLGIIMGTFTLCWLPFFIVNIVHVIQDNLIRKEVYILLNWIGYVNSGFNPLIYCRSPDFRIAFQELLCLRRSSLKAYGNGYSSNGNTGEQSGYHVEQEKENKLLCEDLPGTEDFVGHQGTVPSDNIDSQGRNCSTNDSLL
Procedure: In this assay, the agonist potency and intrinsic activity of a test compound were determined using a cell line expressing endogenous levels of the β2 adrenergic receptor.
On the day of the assay, cells were rinsed with PBS, lifted by scraping with 5 mM EDTA in PBS, and counted. Cells were pelleted by centrifugation at 1,000 rpm and re-suspended in stimulation buffer pre-warmed to 37° C. at a final concentration of 600,000 cells/mL. Cells were used at a final concentration of 100,000 to 120,000 cells/well in this assay. […] Test compounds were tested in the assay at 11 different concentrations, ranging from 10 μM to 10 pM. Reactions were incubated for 10 min at 37° C. and stopped by addition of 100 μL of ice-cold detection buffer. Plates were sealed, incubated over night at 4° C. and counted the next morning in a Topcount scintillation counter (Packard BioScience Co., Meriden, Conn.). […] Data were analyzed by nonlinear regression analysis with the GraphPad Prism Software package (GraphPad Software, Inc., San Diego, Calif.) using the 4-parameter model for sigmoidal dose-response.

Kobs for blockade of agonist-mediated calcium release (hM1 receptor): less than 10 nM | Kobs for blockade of agonist-mediated calcium release (hM3 receptor): less than 10 nM | EC50 ([1]; cAMP): < 10 nM | intrinsic activity ([1]; compared with full β2 agonist isoproterenol (1.0)): greater than 0.3
SMILES: Cc1cc(NC(=O)CCN2CCC(OC(=O)Nc3ccccc3-c3ccccc3)CC2)c(C)cc1CNC[C@H](O)c1ccc(O)c(NC=O)c1 [compound of formula I, biphenyl-2-ylcarbamic acid 1-[2-(4-{[(R)-2-(3-formylamino-4-hydroxyphenyl)-2-hydroxyethylamino]methyl}-2,5-dimethylphenylcarbamoyl)ethyl]-piperidin-4-yl ester]
Kobs for blockade of agonist-mediated calcium release (cM5 receptor): less than 10 nM
